We go through one molecule from US20150272881A1, “REDUCED PYRROLOQUINOLINE QUINONE GEL” (MITSUBISHI GAS CHEMICAL COMPANY, INC., priority 2011, published 2015).

The format of this data set is physicochemical. The text has this: The “solubility” in this description means the limit of dissolving of a solute in a solvent; it can be expressed as the concentration of a solute in a saturated solution. The solubility of the oxidized pyrroloquinoline quinone derivative or a salt thereof can be appropriately decided depending on the temperature of the mixture.

As for `O=C([O-])c1cc(C(=O)[O-])c2c(n1)C(=O)C(=O)c1cc(C(=O)O)[nH]c1-2.[Na+].[Na+]` [oxidized pyrroloquinoline quinone disodium], the solubility is given as 0.299 g with respect to 100 g of water.
